This assay relates to P388 leukemia ip, CD2F1 mice, survival T/C. Kind of assay: NCI In Vivo Anticancer Drug Screen. Data for tumor model P388 Leukemia (intraperitoneal) in CD2F1 (CDF1) mice. Conditions: endpoint: median survival time, higher = longer survival. In outline:
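Mice carrying the transplanted tumor received test compound or vehicle. Survival was recorded in each group, and the value is the treated-group measurement divided by that of the vehicle-treated control group.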

Where [1] appears, read: dose: 100.0 mg/kg/injection, schedule: Q01DX001 (ip), vehicle: saline with Tween-80.
Where [2] appears, read: dose: 200.0 mg/kg/injection, schedule: Q01DX001 (ip), vehicle: saline with Tween-80.
Setting [3] is: dose: 400.0 mg/kg/injection, schedule: Q01DX001 (ip), vehicle: saline with Tween-80.
Where [4] appears, read: dose: 25.0 mg/kg/injection, schedule: Q01DX009 (ip), vehicle: saline with Tween-80.
[5] abbreviates: dose: 50.0 mg/kg/injection, schedule: Q01DX009 (ip), vehicle: saline with Tween-80.
Where [6] appears, read: dose: 6.25 mg/kg/injection, schedule: Q01DX005 (ip), vehicle: saline.
[7] abbreviates: dose: 12.5 mg/kg/injection, schedule: Q01DX005 (ip), vehicle: saline.
The mark [8] stands for this setting: dose: 60.0 mg/kg/injection, schedule: Q01DX005 (ip), vehicle: saline with Tween-80.
Setting [9] is: dose: 120.0 mg/kg/injection, schedule: Q01DX005 (ip), vehicle: saline with Tween-80.
Setting [10] is: dose: 240.0 mg/kg/injection, schedule: Q01DX005 (ip), vehicle: saline with Tween-80.

The structures appear in SMILES notation. Values joined by “and” are separate entries in the source; they are usually repeats but may differ in a detail not shown here. Equal entries are not always repeated. Inconclusive results and toxic doses are left out.

`c1ccc2c(c1)Cc1ccccc1N2CCN1CCCCC1`: the T/C is 101 % of control (dose: 50.0 mg/kg/injection, schedule: Q01DX005 (ip), vehicle: saline) and 104 % of control (dose: 100.0 mg/kg/injection, schedule: Q01DX005 (ip), vehicle: saline).
For `COc1cc(/C(C)=N/N=C(\C)c2ccc(O)c(OC)c2)ccc1O`, the T/C is 100 % of control under setting [1], 95 % of control under setting [2] and 100 % of control under setting [3].
As to `BrCc1ccc2ccc3ccc(CBr)nc3c2n1`, the T/C runs as follows: (dose: 7.5 mg/kg/injection, schedule: Q01DX005 (ip), vehicle: saline with Tween-80) 103 % of control; (dose: 15.0 mg/kg/injection, schedule: Q01DX005 (ip), vehicle: saline with Tween-80) 115 % of control; (dose: 30.0 mg/kg/injection, schedule: Q01DX005 (ip), vehicle: saline with Tween-80) 106 % of control.
With `[I][Pt+2][I].[NH-]C(c1ccccc1)C([NH-])c1ccccc1` (centres undefined), the T/C is 102 % of control (dose: 12.5 mg/kg/injection, schedule: Q04DX002 (ip), vehicle: saline with Tween-80); 109 % of control and 111 % of control (dose: 25.0 mg/kg/injection, schedule: Q04DX002 (ip), vehicle: saline with Tween-80); 115 % of control (dose: 50.0 mg/kg/injection, schedule: Q04DX002 (ip), vehicle: saline with Tween-80).
For the compound `Cc1ccc2c(ccc(/C=C/c3ccc(O)c4ncccc34)[n+]2C)c1`, the T/C reads like this: (dose: 12.5 mg/kg/injection, schedule: Q01DX009 (ip), vehicle: saline with Tween-80) 116 % of control; under setting [4], 105 % of control.
As for `CC1OC(=O)C2=CCC(O)C(O)C2C1NC(=O)OCc1ccccc1` (centres undefined), the T/C runs as follows: under setting [1], 108 % of control; under setting [2], 108 % of control; under setting [3], 101 % of control.
For the compound `O=C([O][Hg][CH2]C1COC([CH2][Hg][O]C(=O)c2ccccc2)CO1)c1ccccc1` (centres undefined), the T/C was 120 % of control under setting [4]; 104 % of control (dose: 25.0 mg/kg/injection, schedule: Q04DX003 (ip), vehicle: saline with Tween-80); 120 % of control under setting [5]; 90 % of control (dose: 50.0 mg/kg/injection, schedule: Q04DX003 (ip), vehicle: saline with Tween-80); 95 % of control (dose: 100.0 mg/kg/injection, schedule: Q04DX003 (ip), vehicle: saline with Tween-80).
`COc1cc(NCCCC2CCCCN2)c2ncccc2c1OC` (centres undefined): the T/C under setting [6] was 103 % of control and the T/C under setting [7] was 101 % of control.
Turning to `COc1cccc(-c2nnc(-c3nc[nH]c3C)[nH]c2=O)c1`, the T/C is 93 % of control (dose: 100.0 mg/kg/injection, schedule: Q04DX002 (ip), vehicle: saline with Tween-80); 91 % of control (dose: 200.0 mg/kg/injection, schedule: Q04DX002 (ip), vehicle: saline with Tween-80); 91 % of control (dose: 400.0 mg/kg/injection, schedule: Q04DX002 (ip), vehicle: saline with Tween-80).
As for `CCCCN(CCCC)C(=N)c1c2ccccc2nc2ccccc12`, the T/C was 90 % of control under setting [6]; 97 % of control under setting [7]; 103 % of control (dose: 25.0 mg/kg/injection, schedule: Q01DX005 (ip), vehicle: saline).
With `NS(=O)(=O)c1ccc(N=NC2Sc3nc4ccccc4n3C2=O)cc1` (centres undefined), the T/C is, setting by setting: (dose: 60.0 mg/kg/injection, schedule: Q01DX005 (ip), vehicle: Klucel (hydroxypropylcellulose) (HPC)) 94 % of control; (dose: 120.0 mg/kg/injection, schedule: Q01DX005 (ip), vehicle: Klucel (hydroxypropylcellulose) (HPC)) 91 % of control.
For `CCOc1c(C)cc(C(C)c2cc3c(cc2OC)OCO3)cc1C` (centres undefined), the T/C reads like this: (dose: 50.0 mg/kg/injection, schedule: Q01DX005 (ip), vehicle: saline with Tween-80) 97 % of control; (dose: 100.0 mg/kg/injection, schedule: Q01DX005 (ip), vehicle: saline with Tween-80) 99 % of control; (dose: 200.0 mg/kg/injection, schedule: Q01DX005 (ip), vehicle: saline with Tween-80) 107 % of control.
On to `O=S(=O)(Nc1ccc(Cl)cc1)c1ccc(F)cc1`, for which the T/C under setting [8] was 101 % of control, the T/C under setting [9] is 100 % of control and the T/C under setting [10] is 99 % of control.
Turning to `O=C(OC(CCc1ccccc1)C(=O)O)c1ccc([N+](=O)[O-])cc1` (centres undefined), the T/C is 111 % of control (dose: 75.0 mg/kg/injection, schedule: Q01DX001 (ip), vehicle: Klucel (hydroxypropylcellulose) (HPC)); 112 % of control (dose: 150.0 mg/kg/injection, schedule: Q01DX001 (ip), vehicle: Klucel (hydroxypropylcellulose) (HPC)); 97 % of control (dose: 300.0 mg/kg/injection, schedule: Q01DX001 (ip), vehicle: Klucel (hydroxypropylcellulose) (HPC)).
`CCC[CH2][Sn]([CH2]CCC)([O]c1ccccc1C=Nc1ccc(F)cc1)[O]c1ccccc1C=Nc1ccc(F)cc1`: the T/C was 116 % of control (dose: 6.25 mg/kg/injection, schedule: Q01DX005 (ip), vehicle: saline with Tween-80) and 122 % of control (dose: 12.5 mg/kg/injection, schedule: Q01DX005 (ip), vehicle: saline with Tween-80).
In the case of `CC(C)(C)OOC(=O)/C=C/c1ccccc1`, the T/C is 101 % of control under setting [8], 108 % of control under setting [9] and 92 % of control under setting [10].
Turning to `CCOC(=O)Nc1cc2c(c(N)n1)N=C(c1ccccc1)CS2`, the T/C is, setting by setting: (dose: 75.0 mg/kg/injection, schedule: Q01DX005 (ip), vehicle: Klucel (hydroxypropylcellulose) (HPC)) 100 % of control; (dose: 150.0 mg/kg/injection, schedule: Q01DX005 (ip), vehicle: Klucel (hydroxypropylcellulose) (HPC)) 95 % of control; (dose: 300.0 mg/kg/injection, schedule: Q01DX005 (ip), vehicle: Klucel (hydroxypropylcellulose) (HPC)) 97 % of control.
On to `COc1ccc(C)cc1N=NC1C(=O)N(C(=O)CC(=O)Nc2ccccc2Cl)N=C1C` (centres undefined), for which the T/C is 96 % of control (dose: 50.0 mg/kg/injection, schedule: Q01DX005 (ip), vehicle: Klucel (hydroxypropylcellulose) (HPC)) and 95 % of control (dose: 100.0 mg/kg/injection, schedule: Q01DX005 (ip), vehicle: Klucel (hydroxypropylcellulose) (HPC)).
For the compound `CC(C)(C)NCC(O)COc1cccc2c1CCC(=O)N2` (centres undefined), the T/C by setting is: under setting [5], 100 % of control; (dose: 100.0 mg/kg/injection, schedule: Q01DX009 (ip), vehicle: saline with Tween-80) 102 % of control; (dose: 200.0 mg/kg/injection, schedule: Q01DX009 (ip), vehicle: saline with Tween-80) 97 % of control.
As to `Cc1cc(C(=O)O)c(C)c2c1sc1ccccc12`, the T/C runs as follows: under setting [8], 101 % of control; under setting [9], 114 % of control.
As to `[Cu+2].[Cu+2].c1ccc2c(c1)-c1nc-2nc2[n-]c(nc3nc(nc4[n-]c(n1)c1ccccc41)-c1ccccc1-3)c1cc3c4nc5nc(nc6[n-]c(nc7nc(nc([n-]4)c3cc21)-c1ccccc1-7)c1ccccc61)-c1ccccc1-5`, the T/C is, setting by setting: under setting [8], 100 % of control; under setting [9], 89 % of control; under setting [10], 95 % of control.
For the compound `CNC(=O)NNc1ccccc1`, the T/C (dose: 25.0 mg/kg/injection, schedule: Q04DX003 (ip), vehicle: Klucel (hydroxypropylcellulose) (HPC)) was 100 % of control; the T/C (dose: 50.0 mg/kg/injection, schedule: Q04DX003 (ip), vehicle: Klucel (hydroxypropylcellulose) (HPC)) was 102 % of control; the T/C (dose: 100.0 mg/kg/injection, schedule: Q04DX003 (ip), vehicle: Klucel (hydroxypropylcellulose) (HPC)) is 97 % of control; the T/C (dose: 200.0 mg/kg/injection, schedule: Q04DX003 (ip), vehicle: Klucel (hydroxypropylcellulose) (HPC)) is 102 % of control; the T/C (dose: 400.0 mg/kg/injection, schedule: Q04DX003 (ip), vehicle: Klucel (hydroxypropylcellulose) (HPC)) was 103 % of control.
On to `O=S(=O)(N1CCCCC1)n1nnc2cc3ccccc3cc21`, for which the T/C reads like this: (dose: 50.0 mg/kg/injection, schedule: Q01DX009 (ip), vehicle: acetone) 98 % of control; (dose: 100.0 mg/kg/injection, schedule: Q01DX009 (ip), vehicle: acetone) 97 % of control; (dose: 200.0 mg/kg/injection, schedule: Q01DX009 (ip), vehicle: acetone) 97 % of control.
Consider `CN(C)CCN1C(=O)CN=C(c2ccccc2Cl)c2cc(Cl)ccc21`, for which the T/C runs as follows: (dose: 60.0 mg/kg/injection, schedule: Q01DX005 (ip), vehicle: saline) 102 % of control; (dose: 120.0 mg/kg/injection, schedule: Q01DX005 (ip), vehicle: saline) 99 % of control; (dose: 240.0 mg/kg/injection, schedule: Q01DX005 (ip), vehicle: saline) 95 % of control.

Values taken from PubChem BioAssay AID330 (DTP/NCI, 2004).
